Test [1] deals with T1, huPA-H99Y (Homo sapiens, UniProt P00749, H272Y).
T1 construct: To ensure that the uPAs purified from the conditioned media were completely in the two-chain form, they were treated with plasmin; hexa-His (C); made in house; host or cells: HEK293 6E suspension cells
The experiment in a line: Ki for inhibition of huPA-H99Y, chromogenic substrate S-2444. The class given is biochemical. Conditions: 37°C; means ± S.D.; read-out: K i for inhibition of huPA-H99Y. The source says: (§1) Determination of Ki values
(§2) The initial reaction velocities were monitored at an absorbance of 405 nm. The inhibition constants (K i) were subsequently determined from the non-linear regression analyses of plots for V i/V o versus [I]0, using Equation 2, derived under assumption of competitive inhibition:
(§3) [drawing 2] (2) where V i and V 0 are the reaction velocities in the presence and absence of inhibitor, respectively; [S]0 and [I]0 are the substrate and inhibitor concentrations, respectively; K M is K M for substrate hydrolysis by each protease. In Equation 2, it is assumed that [S]free ≈ [S]0 and [I]free ≈ [I]0.

Test [2] has as its target T2, huPA-H99Y R35A (Homo sapiens, UniProt P00749, H272Y/R198A).
T2 construct: To ensure that the uPAs purified from the conditioned media were completely in the two-chain form, they were treated with plasmin; hexa-His (C); made in house; host or cells: HEK293 6E suspension cells
The experiment in a line: Ki for inhibition of huPA-H99Y-R35A, chromogenic substrate. The test is classed as biochemical. Conditions: 37°C; means ± S.D.; read-out: K i for inhibition of huPA-H99Y-R35A.
Excerpt: as §1, §2, §3

In test [3] the target is T3, huPA-H99Y V41A (Homo sapiens, UniProt P00749, H272Y/V208A).
T3 construct: To ensure that the uPAs purified from the conditioned media were completely in the two-chain form, they were treated with plasmin; hexa-His (C); made in house; host or cells: HEK293 6E suspension cells
Briefly: Ki for inhibition of huPA-H99Y-V41A, chromogenic substrate. The test is classed as biochemical. Conditions: 37°C; means ± S.D.; read-out: K i for inhibition of huPA-H99Y-V41A.
Excerpt: as §1, §2, §3

For test [4], the target named is T4, huPA-H99Y K143A (Homo sapiens, UniProt P00749, H272Y/K320A).
T4 construct: To ensure that the uPAs purified from the conditioned media were completely in the two-chain form, they were treated with plasmin; hexa-His (C); made in house; host or cells: HEK293 6E suspension cells
The experiment in a line: Ki for inhibition of huPA-H99Y-K143A, chromogenic substrate. Particulars: 37°C; means ± S.D.; read-out: K i for inhibition of huPA-H99Y-K143A. The class given is biochemical.
Excerpt: as §1, §2, §3

The target of test [5] is T5, muPA K41A (Mus musculus, UniProt P06869, K210A).
T5 construct: To ensure that the uPAs purified from the conditioned media were completely in the two-chain form, they were treated with plasmin; hexa-His (C); made in house; host or cells: HEK293 6E suspension cells
T5 sequence (P06869 180-433 K210A): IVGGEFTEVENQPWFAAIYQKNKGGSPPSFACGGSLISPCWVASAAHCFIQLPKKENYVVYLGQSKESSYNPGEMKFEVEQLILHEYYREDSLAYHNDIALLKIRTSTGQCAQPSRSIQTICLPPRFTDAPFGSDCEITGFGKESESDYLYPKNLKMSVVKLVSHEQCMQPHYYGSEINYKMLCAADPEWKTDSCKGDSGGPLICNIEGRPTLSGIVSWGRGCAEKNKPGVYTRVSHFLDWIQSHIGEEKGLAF
T5 sequence (P06869 21-178 partner limits assumed): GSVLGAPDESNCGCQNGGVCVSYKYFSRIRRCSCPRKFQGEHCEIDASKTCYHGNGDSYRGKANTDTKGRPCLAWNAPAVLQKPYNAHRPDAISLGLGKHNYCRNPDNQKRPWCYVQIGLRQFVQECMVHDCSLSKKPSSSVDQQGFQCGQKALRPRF
The experiment in a line: Ki for inhibition of muPA-K41A, chromogenic substrate. The test is classed as biochemical, murine. Particulars: means ± S.D.; read-out: K i for inhibition of muPA-K41A.
Excerpt: as §1, §2, §3

In test [6] the target is T6, muPA Y99A (Mus musculus, UniProt P06869, Y274A).
T6 construct: To ensure that the uPAs purified from the conditioned media were completely in the two-chain form, they were treated with plasmin; hexa-His (C); made in house; host or cells: HEK293 6E suspension cells
T6 sequence (P06869 180-433 Y274A): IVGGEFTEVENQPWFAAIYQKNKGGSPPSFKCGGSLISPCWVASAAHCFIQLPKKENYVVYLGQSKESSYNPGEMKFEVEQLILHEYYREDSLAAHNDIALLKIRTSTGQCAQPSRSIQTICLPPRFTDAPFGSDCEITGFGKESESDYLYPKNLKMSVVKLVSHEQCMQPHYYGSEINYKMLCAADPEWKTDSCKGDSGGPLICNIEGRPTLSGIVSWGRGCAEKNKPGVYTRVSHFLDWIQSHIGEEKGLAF
T6 sequence (P06869 21-178 partner limits assumed): as the sequence (P06869 21-178 partner limits assumed) above
Briefly: Ki for inhibition of muPA-Y99A, chromogenic substrate. The test is classed as biochemical, murine. Conditions: means ± S.D.; read-out: K i for inhibition of muPA-Y99A.
Excerpt: as §1, §2, §3

For test [7], the target named is T7, muPA K143A (Mus musculus, UniProt P06869, K322A).
T7 construct: To ensure that the uPAs purified from the conditioned media were completely in the two-chain form, they were treated with plasmin; hexa-His (C); made in house; host or cells: HEK293 6E suspension cells
T7 sequence (P06869 180-433 K322A): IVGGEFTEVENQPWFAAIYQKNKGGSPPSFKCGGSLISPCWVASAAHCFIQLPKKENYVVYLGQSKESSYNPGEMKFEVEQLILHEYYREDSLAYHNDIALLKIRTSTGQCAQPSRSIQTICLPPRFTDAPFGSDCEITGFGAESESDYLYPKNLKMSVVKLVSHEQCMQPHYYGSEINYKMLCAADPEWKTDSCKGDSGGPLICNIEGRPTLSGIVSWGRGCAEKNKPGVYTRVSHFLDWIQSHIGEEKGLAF
T7 sequence (P06869 21-178 partner limits assumed): as the sequence (P06869 21-178 partner limits assumed) above
Briefly: Ki for inhibition of muPA-K143A, chromogenic substrate. The class given is biochemical, murine. Particulars: means ± S.D.; read-out: K i for inhibition of muPA-K143A.
Excerpt: as §1, §2, §3

Test [8] addresses T8, muPA S190A (Mus musculus, UniProt P06869, S373A).
T8 construct: To ensure that the uPAs purified from the conditioned media were completely in the two-chain form, they were treated with plasmin; hexa-His (C); made in house; host or cells: HEK293 6E suspension cells
Briefly: Ki for inhibition of muPA-S190A, chromogenic substrate. The class given is biochemical, murine. Conditions: means ± S.D.; read-out: K i for inhibition of muPA-S190A.
Excerpt: as §1, §2, §3

The target of test [9] is T9, muPA V213T (Mus musculus, UniProt P06869, V396T).
T9 construct: To ensure that the uPAs purified from the conditioned media were completely in the two-chain form, they were treated with plasmin; hexa-His (C); made in house; host or cells: HEK293 6E suspension cells
T9 sequence (P06869 180-433 V396T): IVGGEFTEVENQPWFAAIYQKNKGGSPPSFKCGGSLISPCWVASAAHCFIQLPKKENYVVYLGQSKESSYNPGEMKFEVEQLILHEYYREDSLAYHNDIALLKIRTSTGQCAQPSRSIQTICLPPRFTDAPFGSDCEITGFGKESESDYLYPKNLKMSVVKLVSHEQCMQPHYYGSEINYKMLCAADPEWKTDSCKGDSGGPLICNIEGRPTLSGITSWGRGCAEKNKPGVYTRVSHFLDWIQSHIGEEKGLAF
T9 sequence (P06869 21-178 partner limits assumed): as the sequence (P06869 21-178 partner limits assumed) above
Briefly: Ki for inhibition of muPA-V213T, chromogenic substrate. The test is classed as biochemical, murine. Conditions: means ± S.D.; read-out: K i for inhibition of muPA-V213T.
Excerpt: as §1, §2, §3

The target of test [10] is T1, huPA-H99Y. Briefly: Surface plasmon resonance analysis of peptide binding to huPA-H99Y. Conditions: SPR, 25°C, pH 7.4. As for the experimental part: (§4) Surface plasmon resonance (SPR) analysis
(§5) To determine the equilibrium binding constants (KD), the association rate constants (kon) and dissociation rate constants (koff) for peptide binding to uPA, surface plasmon resonance analysis was performed on a Biacore T200 instrument (Biacore, Uppsala, Sweden). A CM5 chip was coupled with the uPA variant (muPA or huPAH99Y) to be analysed, by injecting a concentration of 30 µg/mL uPA in immobilization buffer (10 mM sodium acetate, pH 5.0), aiming for an immobilised level of approximately 500 response units (RU). Immobilisation was followed by surface blocking with ethanolamine. A reference cell was prepared in the same way, without coupling of uPA. Mupain-1 variants in HBS with 0.1% BSA, in a dilution series, were injected at a flow rate of 30 µL per min during 60 s at 25°C. Subsequently, the dissociation was monitored during 600 s. Kinetic constants (k on and k off) were calculated with the Biacore Evaluation Software, using the 1∶1 kinetic fit. The K D values were calculated as k off /k on.
Background: Surface plasmon resonance follows binding to a sensor surface in real time, without labels.

For test [11], the target named is T10, muPA (Mus musculus, UniProt P06869).
T10 construct: To ensure that the uPAs purified from the conditioned media were completely in the two-chain form, they were treated with plasmin; hexa-His (C); made in house; host or cells: HEK293 6E suspension cells
T10 sequence (P06869 180-433 limits assumed): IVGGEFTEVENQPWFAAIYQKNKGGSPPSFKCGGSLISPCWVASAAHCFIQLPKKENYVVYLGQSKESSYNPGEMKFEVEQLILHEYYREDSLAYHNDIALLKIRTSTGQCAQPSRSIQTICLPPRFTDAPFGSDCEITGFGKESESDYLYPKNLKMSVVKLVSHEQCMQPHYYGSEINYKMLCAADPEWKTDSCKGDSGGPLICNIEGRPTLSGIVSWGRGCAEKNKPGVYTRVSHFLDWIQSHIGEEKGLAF
T10 sequence (P06869 21-178 partner limits assumed): as the sequence (P06869 21-178 partner limits assumed) above
Briefly: Surface plasmon resonance analysis of peptide binding to muPA. Set-up: species or system murine. Particulars: SPR, 25°C, pH 7.4. Here is the method:
as §4, §5

Test [12] addresses T11, huPA-H99Y (Homo sapiens, UniProt P00749, C299A/H272Y/N322Q).
T11 construct: recombinant uPA catalytic domain (residues 159–411), harbouring a H99Y mutation; made in house; host or cells: Pichia pastoris X-33 (secreted)
The experiment in a line: Isothermal titration calorimetry for binding to huPA-H99Y catalytic domain. Particulars: ITC, 25°C, pH 7.4. As for the experimental part:
For these experiments, we used the catalytic domain of huPA-H99Y expressed in and purified from Pichia pastoris strain X-33 (see above). The protein was dissolved in and dialysed against a buffer of 20 mM sodium phosphate, pH 7.4, 140 mM NaCl. The protein concentration was determined by absorbance at 280 nm, using an extinction coefficient of 43810 M^−1cm^−1. The peptides were dissolved in the above-mentioned buffer. All isothermal titration calorimetry experiments were performed with a MicroCal^TM ITC200 instrument equilibrated to a temperature of 25°C (298oK). The concentration of uPA-H99Y catalytic domain used in the 200 µl sample cell was 5–50 µM, depending on the affinity of the ligand. Titrations were performed by injecting 2 µl of the ligand until the total syringe volume of 40 µl was spent. Titration of ligand into buffer was performed to obtain buffer correction. The equilibrium association constant KA and the reaction enthalpy ΔH were calculated by fitting the integrated titration peaks using a one-binding-site model in the ITC ORIGIN7 programme package. The following formulas for Gibbs free energy ΔG were used to analyse the measured energies
[drawing 4] (4) where R is the gas constant and T the absolute temperature. ΔS, the entropic change during the reaction, was calculated using equations 3 and 4 and the measured K A and ΔH values.
In general terms: ITC needs no label: the signal is the heat of the interaction.

For test [13], the target named is huPA-H99Y Q192A (Homo sapiens, UniProt P00749, H272Y/Q373A). Briefly: Ki for inhibition of huPA-H99Y-Q192A, chromogenic substrate. The test is classed as biochemical. Set-up: To ensure that the uPAs purified from the conditioned media were completely in the two-chain form, they were treated with plasmin; hexa-His (C); made in house; host or cells: HEK293 6E suspension cells. Conditions: 37°C; means ± S.D.; read-out: K i for inhibition of huPA-H99Y-Q192A.
Excerpt: as §1, §2, §3

Bridge positions count the residues as written; N and C are the ends. Square brackets hold non-standard residues; d marks the D form. Peptide text beside a SMILES is read from it. Ala(1-amidino-4-piperidyl) = N=C(N)N1CCC(C[C@H](N)C(=O)O)CC1

T8 sequence (P06869 180-433 S373A): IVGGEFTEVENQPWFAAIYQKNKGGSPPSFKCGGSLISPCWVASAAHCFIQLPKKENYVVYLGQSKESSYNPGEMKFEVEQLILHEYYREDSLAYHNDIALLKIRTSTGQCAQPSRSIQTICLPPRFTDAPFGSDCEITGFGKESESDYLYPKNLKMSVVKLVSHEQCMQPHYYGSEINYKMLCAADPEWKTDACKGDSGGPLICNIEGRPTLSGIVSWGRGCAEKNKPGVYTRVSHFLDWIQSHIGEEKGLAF
T8 sequence (P06869 21-178 partner limits assumed): as the sequence (P06869 21-178 partner limits assumed) above

Take `CC(=O)N[C@H]1CSSC[C@@H](C(N)=O)NC(=O)[C@H](CC(=O)O)NC(=O)[C@H](CC(C)C)NC(=O)[C@H](Cc2ccc(O)cc2)NC(=O)[C@H](CCCNC(=N)N)NC(=O)[C@H](CO)NC(=O)[C@H](C)NC(=O)[C@H](C)NC(=O)[C@@H]2CCCN2C1=O` [Mupain-1 Y4A, CPAASRYLDC] (Ac-CPAASRYLDC-NH2; disulfide 1-10): in test [1], the Ki was above 1000 µM.

Turning to `CC(=O)N[C@H]1CSSC[C@@H](C(N)=O)NC(=O)[C@H](CC(=O)O)NC(=O)[C@H](CC(C)C)NC(=O)[C@H](C)NC(=O)[C@H](CCCNC(=N)N)NC(=O)[C@H](CO)NC(=O)[C@H](Cc2ccc(O)cc2)NC(=O)[C@H](C)NC(=O)[C@@H]2CCCN2C1=O` [Mupain-1 Y7A, CPAYSRALDC] (Ac-CPAYSRALDC-NH2; disulfide 1-10), in test [1], the Ki worked out at 44 ± 3 µM.

As for `CC(=O)N[C@H]1CSSC[C@@H](C(N)=O)NC(=O)[C@H](C)NC(=O)[C@H](CC(C)C)NC(=O)[C@H](Cc2ccc(O)cc2)NC(=O)[C@H](CC2CCN(C(=N)N)CC2)NC(=O)[C@H](CO)NC(=O)[C@H](Cc2ccc(O)cc2)NC(=O)[C@H](C)NC(=O)[C@@H]2CCCN2C1=O` [Mupain-1-16 D9A, CPAYS[L-3-(N-amidino-4-piperidyl)alanine]YLAC] (Ac-CPAYS[Ala(1-amidino-4-piperidyl)]YLAC-NH2; disulfide 1-10), the Ki was 0.309 ± 0.013 µM in test [1]; 0.174 ± 0.059 µM in [2]; 0.48 ± 0.158 µM in test [3]; 0.188 ± 0.057 µM in [4]; 0.014 ± 0.002 µM in [5]; 1.36 ± 0.33 µM in test [6]. Besides, the Ki in test [7] was 0.1 ± 0.02 µM; in test [8], 0.529 ± 0.052 µM; in [9], 0.014 ± 0.004 µM; in [13], 0.438 ± 0.072 µM. In addition, the “k off, huPA-H99Y” value in test [10] was 3.33±0.13 (4) s^-1, ×10^2. Moreover, in test [10], the “k on, huPA-H99Y” value was 4.65±0.27 (4) M^-1s^-1, ×10^-5. The Kd in [10] (calculated as k off/k on, read-out: K D, huPA-H99Y) is 0.0718 ± 0.006 µM; in [12] it was 0.134 ± 0.061 µM. The “k off, muPA” value in test [11] is listed as 1.22±0.06 (3) s^−1, ×10^2. Further, the “k on, muPA” value in test [11] is recorded as 5.79±0.82 (3) M^−1s^−1, ×10^−5. For the same compound, in [12], the N is 0.88±0.11 (5). The TΔS in test [12] is listed as −6.2±2.7 (5) ^1 kJ/mole. The ΔG in [12] was −39.5±1.1 (5) ^1 kJ/mole. Besides, the ΔH in [12] is recorded as −46.6±2.9 (5) ^1 kJ/mole.

As to CPAYSRYLDC [Mupain-1 L8A], the Ki in test [1] was found to be 19.1 ± 1.1 µM.

These data come from article PMC4278837, “A Cyclic Peptidic Serine Protease Inhibitor: Increasing Affinity by Increasing Peptide Flexibility” (PLoS ONE, 2014).
